In patent publication US7105534B2, “Imidazo[1,2-α]pyridine ether compounds as ion channel modulators” (Cardiome Pharma Corp., priority 2000, dated 2006):

What was measured:
Sprague Dawley rats = test: Cardiovascular and behavioral effects: ECG changes during i.v. infusion in conscious rats; type: in vivo, rat
Experimental: Preparative surgery is performed in Sprague Dawley rats weighing 200–300 gm and anaesthetized with 65 mg/kg (i.p.) pentobarbital. The femoral artery and vein are cannulated using polyethylene (PE)-10 tubing. Prior to surgery, this PE-10 tubing had been annealed to a wider gauge (PE-50) tubing for externalization. The cannulated PE-10/PE-50 tubing is passed through a trocar and exteriorised together with three (lead II) limb ECG leads (see below). The trocar is threaded under the skin of the back and out through a small incision at the mid-scapular region. A ground ECG electrode is inserted subcutaneously using a 20 gauge needle with the lead wire threaded through it. To place the other ECG electrodes, a small incision is made in the anterior chest region over the heart and ECG leads are inserted into the subcutaneous muscle layer in the region of the heart using a 20 guage needle. Other ECG leads are inserted into the subcutaneous muscle layer in the region near the base of the neck and shoulder (right side). The animal is returned to a clean recovery-cage with free access to food and water. The treatment and observational period for each animal commenced after a 24-hour recovery period.
A 15 min observational period is recorded followed by the intravenous infusion regime of the test compound at an initial dose of 2.0 μmol/kg/min (at 1 ml/hr). This rate is doubled every 5 minutes until one of the following effects is observed:
Blood pressure (BP), heart rate (HR) and ECG variables are continuously recorded while behavioral responses are also monitored and the total accumulative drug dose and drug infusion rate at which the response (such as convulsion, piloerection, ataxia, restlessness, compulsive chewing, lip-smacking, wet dog shake etc.) occurred are recorded.
Electrocardiograph (ECG) parameters: PR, QRS, QT1 (peak of T-wave), QT2 (midpoint of T-wave deflection) and hemodynamic parameters: BP and HR are analyzed using the automated analysis function in LabView (National Instruments) with a customized autoanalysis software (Nortran Pharmaceuticals). The infused dose producing 25% from control (D25) for all recorded ECG variables is determined.
Table 2 describes the results of the tests as D25 (micromol/kg) which are the doses required to produce a 25% increase in the ECG parameter measured (ne=not estimated). The increases in P-R interval and QRS interval indicate cardiac sodium channel blockade while the increase in Q-T interval indicates cardiac potassium channel blockade.

Kv1.5 = biological target: T1, Kv1.5 (Homo sapiens, UniProt P22460); test: Patch-clamp inhibition of cloned ion channel current in transfected HEK cells: Kv1.5; type: cell-based; conditions: steady-state current, -80 mV to +60 mV
T1 construct: expressed in transfected cells; host or cells: HEK cells, transient transfection, vector pCDNA3
T1 sequence (P22460 whole entry): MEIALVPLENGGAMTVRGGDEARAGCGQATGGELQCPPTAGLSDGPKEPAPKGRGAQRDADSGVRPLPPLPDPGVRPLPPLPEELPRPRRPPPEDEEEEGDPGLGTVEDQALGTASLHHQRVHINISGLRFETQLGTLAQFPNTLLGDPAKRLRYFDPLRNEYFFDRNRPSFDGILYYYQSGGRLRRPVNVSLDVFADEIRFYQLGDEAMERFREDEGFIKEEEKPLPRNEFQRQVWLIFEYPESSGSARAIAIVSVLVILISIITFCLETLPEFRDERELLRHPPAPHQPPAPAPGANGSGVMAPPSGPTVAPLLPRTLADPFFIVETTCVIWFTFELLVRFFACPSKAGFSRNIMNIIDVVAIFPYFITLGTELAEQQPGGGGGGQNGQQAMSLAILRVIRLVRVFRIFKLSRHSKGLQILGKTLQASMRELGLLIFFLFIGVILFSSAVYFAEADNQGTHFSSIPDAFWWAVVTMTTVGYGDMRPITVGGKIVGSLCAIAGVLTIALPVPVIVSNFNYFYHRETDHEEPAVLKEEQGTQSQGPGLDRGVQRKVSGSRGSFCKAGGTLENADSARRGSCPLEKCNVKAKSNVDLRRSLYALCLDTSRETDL
How it was run: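 Whole-cell patch clamp at 22–23 °C on transiently transfected HEK cells, compound 0.5–100 μM, pulses every 4 s. Na+: peak current, −100 mV holding, −30 mV for 10 ms; Kv1.5 (steady-state) and Kv4.2 (integrated): −80 mV holding, +60 mV for 200 ms. IC50 by Hill fit, 4–6 cells.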

HERG = biological target: T2, HERG (Homo sapiens, UniProt Q12809); test: Patch-clamp inhibition of cloned ion channel current in transfected HEK cells: HERG; type: cell-based; conditions: whole-cell patch clamp
T2 construct: expressed in transfected cells; host or cells: HEK cells, transient transfection, vector pCDNA3
T2 sequence (Q12809 whole entry): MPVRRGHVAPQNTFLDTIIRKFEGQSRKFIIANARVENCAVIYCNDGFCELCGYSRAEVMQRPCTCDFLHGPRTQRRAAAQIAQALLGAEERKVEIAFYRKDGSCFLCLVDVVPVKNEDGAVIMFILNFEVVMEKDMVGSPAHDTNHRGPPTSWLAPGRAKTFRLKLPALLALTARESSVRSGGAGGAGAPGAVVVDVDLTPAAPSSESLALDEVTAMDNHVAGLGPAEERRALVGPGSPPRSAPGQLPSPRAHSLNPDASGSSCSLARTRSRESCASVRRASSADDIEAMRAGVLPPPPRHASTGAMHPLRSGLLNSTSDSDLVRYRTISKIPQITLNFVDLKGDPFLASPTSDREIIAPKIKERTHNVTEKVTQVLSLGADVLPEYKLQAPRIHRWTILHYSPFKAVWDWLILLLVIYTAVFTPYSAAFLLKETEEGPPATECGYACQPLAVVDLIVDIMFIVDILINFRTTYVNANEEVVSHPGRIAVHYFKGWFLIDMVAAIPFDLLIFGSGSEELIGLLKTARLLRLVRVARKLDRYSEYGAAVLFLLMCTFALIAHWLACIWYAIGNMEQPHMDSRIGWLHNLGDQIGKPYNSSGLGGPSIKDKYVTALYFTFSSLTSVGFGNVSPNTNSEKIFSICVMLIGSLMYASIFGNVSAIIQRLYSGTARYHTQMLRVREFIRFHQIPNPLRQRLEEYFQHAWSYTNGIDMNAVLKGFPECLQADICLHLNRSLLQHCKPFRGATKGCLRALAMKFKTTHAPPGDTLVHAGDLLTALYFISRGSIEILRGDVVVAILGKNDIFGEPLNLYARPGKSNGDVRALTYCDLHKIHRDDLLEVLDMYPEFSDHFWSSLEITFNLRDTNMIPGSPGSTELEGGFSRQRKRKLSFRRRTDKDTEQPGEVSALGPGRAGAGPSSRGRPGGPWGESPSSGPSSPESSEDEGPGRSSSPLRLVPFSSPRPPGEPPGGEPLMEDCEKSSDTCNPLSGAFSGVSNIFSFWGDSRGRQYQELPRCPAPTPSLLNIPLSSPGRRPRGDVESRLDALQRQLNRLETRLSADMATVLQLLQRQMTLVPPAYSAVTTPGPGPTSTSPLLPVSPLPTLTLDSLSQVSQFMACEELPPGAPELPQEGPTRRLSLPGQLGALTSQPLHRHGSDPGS
How it was run: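 HERG channels were expressed by transient lipofection of HEK cells with pCDNA3 plus the pHook-1 marker, and bead-tagged cells were selected after 24–48 hours. Whole-cell currents were recorded at 22C to 23C with an Axopatch 200A in KCl pipette and NaCl bath solutions. Compound was applied at 0.5 to 100 μM, and IC50 came from Hill equation fits.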

IC50 (Kv1.5): 6 µM
Structure (SMILES): COc1ccc(CCCOc2cccn3cc(C)nc23)cc1OC [Compound 3, 8-[3-(3,4-DIMETHOXYPHENYL)PROPOXY]-2-METHYLIMIDAZO[1,2-α]PYRIDINE MONOHYDROCHLORDE]
D25 QT (dose required to produce a 25% increase in Q-T interval) (Sprague Dawley rats; indicates cardiac potassium channel blockade): 16 µmol/kg | D25 PR (dose required to produce a 25% increase in P-R interval) (Sprague Dawley rats; indicates cardiac sodium channel blockade): 21 µmol/kg | IC50 (HERG): 0.6 µM
